Test results from publication PMC6387968, “An in vitro ADME and in vivo Pharmacokinetic Study of Novel TB-Active Decoquinate Derivatives” (Frontiers in Pharmacology, 2019).

Key:
in vivo = experiment: in vivo; set-up: species or system male C57BL/6 mice; details: for Vd / clearance / half-life / t1/2 / Cmax / Tmax: male, C57BL/6, mouse; for AUC: mouse
Protocol: Healthy male C57BL/6 mice, 12 to 16 weeks old, weighing approximately 30 g, were maintained at the animal facility of the University of Cape Town. Mice were fed a standard laboratory diet and water ad libitum. Mice were housed in 27 × 21 × 18 cm cages, under controlled environmental conditions (26 ± 1°C with 12-h light/dark cycles). Mice were acclimatized to their experimental environment for 4 days before the experiment started.
Clear suspensions of RMB041, -043, and -073 were prepared in […] hydroxypropyl methylcellulose and administered via oral gavage (20 mg/kg, volume = 200 μL, n = 3). Blood samples (20 μL) were collected on ice in heparinized microvials via tail bleeding at 0, 0.5, 1, 3, 5, 8, 10, 24, and 48 h following drug administration and stored at -80°C.
Solutions for IV injection (5 mg/kg) were prepared using a mixture of dimethyl acetamide, polyethylene glycol, and polypropylene glycol (1:3:6, v/v) and were injected into the penile vein (80 μL) following anesthesia of mice with intraperitoneal injection (IP) of ketamine/xylazine (75–100 mg/kg + 10 mg/kg; n = 3). Blood samples were collected on ice in heparinized microvials via tail bleeding at 0.083, 0.5, 1, 3, 5, 8, 10, 24, and 48 h following drug administration and stored at -80°C.
Mouse whole-blood samples (20 μL) were each treated with 100 μL ACN containing IS (carbamazepine, 1 μg/mL) to precipitate blood proteins, and were subjected to vigorous vortexing for 1 min and centrifugation at 5590 × g for 5 min. The supernatant layer containing compound (50 μL) was removed from each sample and added to the analysis plate. Thereafter, samples were dried down under nitrogen. A solution of ACN and water (1:1, v:v, 100 μL) was added to each well, and samples were analyzed via LC-MS/MS.
To determine compound concentrations in mouse whole-blood samples, seven calibration samples (range 0.980 to 4000 ng/mL), as well as low-, medium-, and high-concentration quality control (QC) samples (3, 1600, and 3200 ng/mL, respectively) were prepared in mouse blood and subjected to ACN precipitation as described above, in triplicate. Calibration, QC, and test samples were analyzed via LC-MS/MS. Calibration samples were used to plot standard curves, from which test sample concentrations were calculated via quadratic regression (weighting factor = 1/x).
A reverse-phase HPLC column (Gemini NX, C18, 2.6 μm, 50 × 2.1 mm, Phenomenex) was used to separate the compounds and IS (mobile phase B, 0.1% FA in ACN; mobile phase A, 0.1% FA in analytical-grade water). Auto-sampling was performed using an Agilent 1200 series auto-sampler. Data acquisition and evaluation were performed using the Analyst 1.6.2 software (Applied Biosystems, Foster City, CA, United States).
Plots of concentration against time were used to determine the maximal drug concentration (Cmax), time at which Cmax is reached (Tmax), area-under-the-curve from time zero to infinity (AUC0-∞), and the elimination half-life (t1/2). Using these values, the clearance, volume of distribution, and oral bioavailability (BA) were calculated using the non-compartmental analysis (NCA) software PK Solutions version 2.0 (Summit Research Services, Montrose, CO, United States).
The drug concentrations indicated in Figure 2–7 were used to calculate the PK parameters in Table 6 via NCA. Here, the area under the murine whole-blood concentration-time graph is divided into sequential trapezoids that are summed to determine the AUC, which is used to determine t1/2, apparent volume of distribution (Vd), clearance, and percentage BA.

physchem = assay type: physicochemical; details: 22 °C, pH 7.4, aqueous buffer, kinetic from dmso stock
Protocol: Stock solutions of each compound prepared in DMSO (10 mM) were spiked in duplicate into phosphate buffer at pH 7.4 (final concentration = 200 μM). Calibration samples were prepared by spiking individual compounds in DMSO at 11, 100, and 220 μM. These were used to generate a calibration curve to determine compound concentrations in the test samples. The samples were agitated for 2 h using a plate shaker (500 rpm, 22°C). Approximately 150 μL of the resulting supernatant was transferred to a 96-well analysis plate and the calibration and test samples were analyzed via HPLC with a diode array detector (Agilent 1200 Rapid Resolution HPLC, Agilent Technologies, Santa Clara, CA, United States) comprising a reverse-phase Gemini-C18 analytical column (5 μm, 50 mm × 2 mm; Phenomenex, Torrance, CA, United States). Mobile phases comprised 0.1% FA in water (A) and 0.1% FA in ACN (B). The run lasted 3 min and a gradient elution method was used (Table 1).

Mtb H37Rv = test system: Mtb H37Rv; set-up: method as in Beteck et al., 2018; details: in vitro, Mtb H37Rv; ref Beteck et al., 2018; cited from earlier work
in vitro = in vitro ADME; details: for EH (hepatic extraction ratio) Human / EH (hepatic extraction ratio) Mouse: 0.1 M; for half-life at 0.1 M / microsomal CLint at 0.1 M: microsomes
Protocol: RMB041, -043, and -073 ([…]) prepared in DMSO were incubated separately with 530 μL mouse and human microsomes (0.4 mg/mL) at 37°C with the cofactor NADPH (1 mM). Compounds were assessed at 0 and 60 min. The reaction was stopped by the addition of ice-cold ACN containing IS (carbamazepine, 23.6 ng/mL). The samples were analyzed via LC-MS/MS using the instrumentation and conditions described above. The in vitro half-life, intrinsic clearance rate, and hepatic extraction ratio were predicted using results from this assay in the following equations ([Obach, 1999]). […] EH=Fu × CLint/QH+Fu × CLint Metabolic stability was assessed as the compound's depletion from a starting concentration of […] over 1 h in mouse and human microsomal fractions. The in vitro half-life can be predicted from this assay. The linear regression from a graph relating natural logarithmic percentage of the compound remaining versus the incubation time was used to calculate the half-life, CLint, and EH.

Row | SMILES | Vd (in vivo; iv, 5 mg/kg) [L/kg] | clearance (in vivo; iv, 5 mg/kg) [mL/min/kg] | half-life (in vivo; iv, 5 mg/kg) [h] | t1/2 (in vivo; iv, 5 mg/kg) [h] | Cmax (in vivo; po, 20 mg/kg) [µM] | Tmax (in vivo; po, 20 mg/kg) [h] | half-life (in vivo; po, 20 mg/kg) [h] | AUC (in vivo; iv, 5 mg/kg) [µmol·min/L] | solubility kinetic at 2 h (physchem) [µM] | 90% minimum inhibitory concentration (MIC90) (Mtb H37Rv) [µM] | EH (hepatic extraction ratio) Human (in vitro) | EH (hepatic extraction ratio) Mouse (in vitro) | half-life at 0.1 M (in vitro; human) [h] | microsomal CLint at 0.1 M (in vitro; human) [µL/min/mg] | half-life at 0.1 M (in vitro; mouse) [h] | microsomal CLint at 0.1 M (in vitro; mouse) [µL/min/mg]
1 | CCCCCCCCCCOc1cc2c(=O)c(C(=O)NCCOCCO)cn(CC)c2cc1OCC [RMB041] | 1.2 ± 0.03 | 0.385 | 62.3 ± 6.73 | 62.3 ± 6.7 | 5.4 ± 0.4 | 0.5 | 23.4 ± 2.5 | 29250.4 ± 309.0 | > 150 | 1.61 | <0.43 | <0.3 | > 2.5 | 16 | > 2.5 | 26.8
2 | CCCCCCCCCCOc1cc2c(=O)c(C(=O)NCCNCCO)cn(CC)c2cc1OCC [RMB043] | 4.6 ± 1.6 | 1.18 | 8.6 ± 0.4 | 8.6 ± 0.4 | 5.6 ± 1.4 | 0.5 | 6.2 ± 0.8 | 10068.4 ± 127.8 | > 150 | 4.18 | 0.4 | 0.51 | 1.42 | 83 | 1 | 109
3 | CCCCCCCCCCOc1cc2c(=O)c(C(=O)NCCOCCO)cn(CCO)c2cc1OCC [RMB073] | 3.9 ± 0.5 | 0.575 | 15.3 ± 3.2 | 15.3 ± 3.2 | 2 ± 0.03 | 0.5 | 11.6 ± 1.3 | 15940.0 ± 400.0 | > 150 | 1.88 | <0.43 | <0.3 | > 2.5 | 7.78 | > 2.5 | 15
